How the values were obtained:
[1] = system: HL-60 cells; conditions: cited from earlier work
[2] = system: CD34+ cells; experiment: Ex-vivo expansion of CD34+ cell enriched cord blood cultures with cytokines; cell counts and FACS surface antigen analysis; assay type: cell-based, human; conditions: for CD34+ cells per ml: three weeks, SCF, FLt3, IL-6, IL-3, re-selected; for CD34+ (×10^4): 10^−5M
Protocol: Human blood cells were obtained from umbilical cord blood from female patients following full-term, normal delivery (informed consent was obtained).
Samples were collected and processed within 12 hours postpartum. Blood was mixed with 3% Gelatin (Sigma, St. Louis, Mo.), sedimented for 30 minutes to remove most red blood cells. […] The mononuclear cell fraction in the interface layer was collected, washed three times and resuspended in phosphate-buffered saline (PBS) solution (Biological Industries) containing 0.5% bovine serum albumin (BSA, Fraction V; Sigma).
To purify CD34^+ mononuclear cells, the fraction was subjected to two cycles of immuno-magnetic separation using the MiniMACS® or Clinimax® CD34 Progenitor Cell Isolation Kit (Miltenyi Biotec, Auburn, Calif.) as per manufacturer's recommendations.
CD34^+ expressing purified cells above were cultured in 24-well Costar Cell Culture Clusters (Corning Inc., Corning, N.Y.) or culture bags (American Fluoroseal Corp), at a concentration of 10^4 cells/ml in alpha medium (Biological Industries, Beit Haemek, Israel) supplemented with 10% fetal bovine serum (FBS, Biological Industries). The following human recombinant cytokines were added: Thrombopoietin (TPO), interleukin-6 (IL-6), FLT-3 ligand and stem cell factor (SCF), all at final concentrations of 50 ng/ml each, though occasionally IL-3, at a concentration of 20 ng/ml, was added either together or instead of SCF. For non-hematopoietic cell differentiation, FGF, EGF, NGF, VEGF, LIF or Hepatocyte growth factor (HGF) were used to supplement the growth medium, either alone or in various combinations. All cytokines used were purchased from Perpo Tech, Inc. (Rocky Hill, N.J.). The cultures were incubated at 37° C., 5% CO2, in a humidified atmosphere.
At weekly intervals, cell cultures were toped and semi-depopulated and were supplemented with fresh medium, serum and cytokines or supplemented with fresh growth medium, alone. At predetermined time points, cells were harvested, stained with trypan blue, counted, and cell morphology was determined via the use of cytospin (Shandon, UK)-prepared smears stained with May-Grunwald/Giemsa solutions.
CD34^+ purified and whole MNC cultures were prepared and maintained as described above. […] The antagonist was added for a predetermined, limited period, for up to three weeks or continuously during the entire culture period.
Cells were harvested, washed with a PBS solution containing 1% bovine sera albumin (BSA) and 0.1% sodium azide (Sigma), and stained at 4° C. for 60 minutes with fluorescein isothiocyanate or phycoerythrin-conjugated antibodies (all from Immunoquality Products, the Netherlands). The cells were then washed with the same buffer and analyzed by FACS caliber or Facstarplus flow cytometers. Cells were passed at a rate of 1000 cells/second, using saline as the sheath fluid. A 488 nm argon laser beam served as the light source for excitation. Emission of ten thousand cells was measured using logarithmic amplification, and analyzed using CellQuest software. Negative control staining of cells was accomplished with mouse IgG-PE (Dako A/S Glostrup, Denmark) and mouse IgG-FITC (BD Biosciences, Erembodegem, Belgium).
CD34 surface expression on short and long-term cultures initiated either with purified CD34^+ cells or the entire MNC fraction was determined as follows: CD34^+ cells were positively reselected (Miltenyi kit) and counted. Purity was confirmed by subsequent FACS and cell morphology analysis.
Reselected CD34^+ cell subsets were stained for the following combination of antigens: CD34PE/CD38FITC and CD34PE/38, 33, 14, 15, 3, 4, 61, 19 (Lin) FITC. The fraction positive for CD34 and negative for CD38 was defined as CD34^+CD38^−. The fraction positive for CD34 and negative for LIN was defined as CD34^+Lin^− cell fraction.
FACS analysis results are given as percentage values of cells. Absolute numbers of subsets are calculated from the absolute number of CD34^+ cells.

[3] = system: Lin− c-kit+ Sca-1+ murine hematopoietic precursors; conditions: cited from earlier work
[4] = system: CD34+ cells; experiment: Colony forming unit (CFU / LTC-CFUc) ability of ex-vivo CD34+ cell cultures; assay type: cell-based, human; conditions: 10^−5M
Protocol: Total cell counts, numbers of CD34^+ cells and subsets, and CFU numbers are presented as cumulative numbers, with the assumption that the cultures had not been passaged; i.e., the number of cells per ml were multiplied by the number of passages performed.
Cells were cloned in semi-solid, methylcellulose-containing medium supplemented with 2 IU/ml erythropoietin (Eprex, Cilag AG Int., Switzerland), stem cell factor and IL-3, both at 20 ng/ml, and G-CSF and GM-CSF, both at 10 ng/ml (all from Perpo Tech). Cultures were incubated for 14 days at 37° C., 5% CO2 in a humidified atmosphere.
Briefly, the ability of the cultures to maintain self-renewal was measured by determination of the content of colony forming unit cells in the long and extended long-term cultures (LTC-CFUc), as described in the references hereinabove.

[5] = TPO, FLT3, IL-6, IL-3, 3 weeks after seeding

NC(=O)c1cccnc1 [Nicotinamide]
CD38 activity and differentiation [1]: inhibited | CD34+ cells per ml ([2]; 1 mM, TPO): 99 ×10^4 CD34+ cells per ml | CD34+ cells per ml ([2]; 5 mM, TPO): 180 ×10^4 CD34+ cells per ml

CC1=C(/C=C/C(C)=C/C=C/C(C)=C/C(=O)O)C(C)(C)CCC1 [ATRA, all-trans-retinoic-acid]
generation of colony-forming cell (CFC) and colony-forming unit-spleen (CFU-S) ([3]; 1 μmol): enhanced

CN1c2ccc([N+](=O)[O-])cc2N=C(c2ccc(C(=O)O)cc2)c2cc3c(cc21)C(C)(C)CCC3(C)C [HX-531, 4-[5H-2,3-(2,5-Dimethyl-2,5-Hexano) 5-Methyl-8-nitrodibenzo [b,e][1,4]diazepin-11-yl) Benzoic acid]
CD34+ (×10^4) ([2]; 5 weeks after seeding): 1636 ×10^4 | CD34+ (×10^4) ([2]; 9 weeks after seeding): 4977 ×10^4 | CD34+ (×10^4) ([2]; 11 weeks after seeding): 4055 ×10^4 | CD34+ (×10^4) [2, 5]: 167 ×10^4 | CFU (×10^3), mixed ([4]; 3 weeks after seeding, mixed colonies): (120 mixed) ×10^3 | CFU (×10^3) ([4]; 5 weeks after seeding): 8542 ×10^3 | CFU (×10^3) ([4]; 9 weeks after seeding): 36557 ×10^3 | CFU (×10^3) ([4]; 11 weeks after seeding): 67338 ×10^3 | CFU (×10^3) [4, 5]: 1920 ×10^3

CCCOc1cc2c(cc1\C(C)=C/C=C/C(C)=C/C(=O)O)C(C)(C)CCC2(C)C [LGN 100754]
activity on ex vivo expansion of stem/progenitor cells ([2]; 10^−7 M, along with IL-3, 3 and 5 weeks): no activity

Cc1ccc(C2=CCC(C)(C)c3ccc(C#Cc4ccc(C(=O)O)cc4)cc32)cc1 [AGN 193109]
increase in the pre-CFU-S population ([3]; cultured for 7 days): approximately 6 fold | short- or long-term repopulating ability ([3]; cultured for 7 days): virtually no short- or long-term repopulating ability
